Columns and labels:
[1] = system: Type II α7-nAChRs; details: cited from earlier work
[2] = molecular target: α7-2-nAChRs (Rattus norvegicus, UniProt Q05941, INS117GCQLHFDQDLQNMLLREACAQAGEDLRVS); assay: Two-electrode voltage-clamp of Xenopus oocytes injected with α7-2 cRNA
[3] = molecular target: α7-1-nAChRs (Rattus norvegicus, UniProt Q05941); assay: Two-electrode voltage-clamp of Xenopus oocytes injected with α7-1 cRNA

In the case of α-bungarotoxin [αBgt], the “block by αBgt” value [1] is given as greater than 90%, the “time of toxin washout within which inhibition is reversed” value [1] is given as no more than 5 min and the “block by αBgt” value [2] is given as greater than 90%. For the same substance, the “effect on transient and sustained components of the ACh-evoked current” value [2] was “abolished”, the “inhibition of peak ACh-evoked current” value [2] was 93±3% and the “reversal of αBgt inhibition after washout” value [2] was “recovered to near control levels”. For the same substance, the “time of toxin washout within which inhibition is reversed” value [2] was no more than 5 min and the “reversal of αBgt block after washout” value [3] was “did not appreciably reverse”.

From patent publication US7563595B2 (University of South Florida, priority 2002, dated 2009)
